Test [1] deals with Aβ production in Chinese hamster ovary cells that over-express human APP695 with the London and Swedish mutations. The test can be described thus: Cellular Aβ IC50 determination (Aβ40 sandwich ELISA). It is filed as cell-based. As to conditions: Cricetulus griseus; cellular Aβ production; read-out: IC50. In short, it runs like this:
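CHO cells overexpressing human APP695 with London and Swedish mutations, seeded at 10% confluency, treated with compounds up to about 4 μM final (0.4% DMSO). Secreted Aβ40 measured by sandwich ELISA relative to control and fitted to a 4-parameter IC50 model.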

A further test concerns the target memapsin 2 (Homo sapiens, UniProt P56817). Description: Inhibition of memapsin 2 beta-secretase activity (fluorogenic substrate FS-2). It is filed as biochemical. As to conditions: memapsin 2, pH 4, 37° C., read-out: M2Ki. The procedure, abridged: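 Memapsin 2 pre-incubated 20 min with compound at pH 4, 37° C, then FS-2 substrate (MCA-SEVNLDAEFK-DNP, APP Swedish cleavage site) added. Rate of fluorescence increase compared with uninhibited controls, fitted to a tight-binding inhibition model.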

This is an account of results in patent US20100286145A1, “ISOPHTHALAMIDE DERIVATIVES INHIBITING BETA-SECRETASE ACTIVITY” (CoMentis, Inc., priority 2007, published 2010).

Like-named read-outs stand apart in the source and are kept apart here.

memapsin 2, sequence (P56817 46-501): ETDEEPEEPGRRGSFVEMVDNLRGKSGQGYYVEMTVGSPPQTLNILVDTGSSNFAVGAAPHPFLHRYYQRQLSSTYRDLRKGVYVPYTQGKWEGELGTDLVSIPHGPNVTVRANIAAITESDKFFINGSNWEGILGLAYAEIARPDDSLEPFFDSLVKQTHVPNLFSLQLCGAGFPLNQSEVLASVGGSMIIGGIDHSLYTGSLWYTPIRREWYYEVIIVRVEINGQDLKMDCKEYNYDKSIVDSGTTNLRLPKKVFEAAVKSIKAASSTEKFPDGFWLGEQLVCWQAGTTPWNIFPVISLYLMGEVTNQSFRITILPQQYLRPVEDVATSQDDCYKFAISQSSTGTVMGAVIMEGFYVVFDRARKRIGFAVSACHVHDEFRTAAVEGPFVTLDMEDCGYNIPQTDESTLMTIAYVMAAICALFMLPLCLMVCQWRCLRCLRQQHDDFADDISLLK

Regarding `Cc1csc(CN(C)C(=O)c2cccc(C(=O)N[C@@H](Cc3ccccc3)[C@H](O)CNCc3cc(Cl)cc(Cl)c3)c2)n1` [Compound 236, N1-((2S,3R)-4-(3,5-dichlorobenzylamino)-3-hydroxy-1-phenylbutan-2-yl)-N3-methyl-N3-((4-methylthiazol-2-yl)methyl)isophthalamide], in test [1], the IC50 (as a rule, the midpoint of a concentration-inhibition curve) is less than 1 µM. Further, the Ki on memapsin 2 (fluorogenic substrate FS-2) was less than 0.3 µM.

Turning to `Cc1csc(CN(C)C(=O)c2cccc(C(=O)N[C@@H](Cc3ccccc3)[C@H](O)CNCc3cc(N)cc(C(C)C)c3)c2)n1` [Compound 75, N1-((2S,3R)-4-(3-amino-5-isopropylbenzylamino)-3-hydroxy-1-phenylbutan-2-yl)-N3-methyl-N3-((4-methylthiazol-2-yl)methyl)isophthalamide], in test [1], the IC50 is less than 1 µM. The Ki on memapsin 2 (20 minutes pre-incubation) is less than 0.3 µM.

As for `Cc1csc(CN(C)C(=O)c2cc(C(=O)N[C@@H](Cc3ccccc3)[C@H](O)CNCc3cccc(C(F)(F)F)c3)cc(N3CCCC3=O)c2)n1` [Compound 233, N1-((2S,3R)-3-hydroxy-1-phenyl-4-(3-(trifluoromethyl)benzylamino)butan-2-yl)-N3-methyl-N3-((4-methylthiazol-2-yl)methyl)-5-(2-oxopyrrolidin-1-yl)isophthalamide], the IC50 in test [1] is less than 1 µM. On memapsin 2 (fluorogenic substrate FS-2), the Ki is less than 0.3 µM.

Consider `COc1cccc(CNC[C@@H](O)[C@H](Cc2ccccc2)NC(=O)c2cccc(C(=O)NCc3nccc(C)n3)c2)c1` [Compound 102, N1-((2S,3R)-3-hydroxy-4-(3-methoxybenzylamino)-1-phenylbutan-2-yl)-N3-((4-methylpyrimidin-2-yl)methyl)isophthalamide], for which the IC50 in test [1] is greater than 5 µM. Moreover, the Ki on memapsin 2 (20 minutes pre-incubation) is greater than 0.501 µM.

In the case of `Cc1csc(CN(C)C(=O)c2cccc(C(=O)N[C@@H](Cc3ccccc3)[C@H](O)CNCc3cncc(C(F)(F)F)c3)c2)n1` [Compound 23, N1-((2S,3R)-3-hydroxy-1-phenyl-4-((5-(trifluoromethyl)pyridin-3-yl)methylamino)butan-2-yl)-N3-methyl-N3-((4-methylthiazol-2-yl)methyl)isophthalamide], the IC50 in test [1] is less than 1 µM. Further, the Ki at memapsin 2 (20 minutes pre-incubation) was less than 0.3 µM.

As to `Cc1csc(CN(C)C(=O)c2cc(C(=O)N[C@@H](Cc3ccccc3)[C@H](O)CNCc3cncc(C(C)C)c3)cc(C(C)C)c2)n1` [Compound 274, N1-((2S,3R)-3-hydroxy-4-((5-isopropylpyridin-3-yl)methylamino)-1-phenylbutan-2-yl)-5-isopropyl-N3-methyl-N3-((4-methylthiazol-2-yl)methyl)isophthalamide], the IC50 in test [1] was less than 1 µM. For the same compound, the Ki at memapsin 2 (fluorogenic substrate FS-2) was less than 0.3 µM.

Regarding `COc1cc(CNC[C@@H](O)[C@H](Cc2ccccc2)NC(=O)c2cccc(C(=O)N(C)Cc3nc(C)cs3)c2)nc(N(C)C)n1` [Compound 212, N1-((2S,3R)-4-((2-(dimethylamino)-6-methoxypyrimidin-4-yl)methylamino)-3-hydroxy-1-phenylbutan-2-yl)-N3-methyl-N3-((4-methylthiazol-2-yl)methyl)isophthalamide], the IC50 in test [1] is less than 1 µM. Besides, the Ki at memapsin 2 (fluorogenic substrate FS-2) was less than 0.3 µM.

Regarding `COc1cccc(CNC[C@@H](O)[C@H](Cc2ccccc2)NC(=O)c2cc(C(=O)N(C)Cc3nc(C)cs3)cc(N3CCC(O)C3)c2)c1` (stereo partly drawn) [Compound 241, N1-((2S,3R)-3-hydroxy-4-(3-methoxybenzylamino)-1-phenylbutan-2-yl)-5-(3-hydroxypyrrolidin-1-yl)-N3-methyl-N3-((4-methylthiazol-2-yl)methyl)isophthalamide], the IC50 in test [1] lay in the range of 1 to 5 µM. Besides, at memapsin 2 (fluorogenic substrate FS-2), the Ki is less than 0.3 µM.

In the case of `Cc1csc(CN(C(=O)c2cc(C(=O)N[C@@H](Cc3ccccc3)[C@H](O)CNCc3cncc(C(C)C)c3)cc(-c3ncco3)c2)C2CC2)n1` [Compound 186, N1-cyclopropyl-N3-((2S,3R)-3-hydroxy-4-((5-isopropylpyridin-3-yl)methylamino)-1-phenylbutan-2-yl)-N1-((4-methylthiazol-2-yl)methyl)-5-(oxazol-2-yl)isophthalamide], the IC50 in test [1] is less than 1 µM. Besides, the Ki on memapsin 2 (20 minutes pre-incubation) is less than 0.3 µM.

Take `CO/C=C(/C)c1cncc(CNC[C@@H](O)[C@H](Cc2ccccc2)NC(=O)c2cccc(C(=O)N(C)Cc3nc(C)cs3)c2)c1` [Compound 279, N1-((2S,3R)-3-hydroxy-4-((5-((Z)-1-methoxyprop-1-en-2-yl)pyridin-3-yl)methylamino)-1-phenylbutan-2-yl)-N3-methyl-N3-((4-methylthiazol-2-yl)methyl)isophthalamide]: in test [1], the IC50 is less than 1 µM. The Ki at memapsin 2 (fluorogenic substrate FS-2) is 0.301 to 0.5 µM.

Regarding `C[C@@H](NC(=O)c1cc(C(=O)N[C@@H](Cc2ccccc2)[C@H](O)CNCc2cccc(C(=O)O)c2)cc(N(C)S(C)(=O)=O)c1)c1ccccc1` [Compound 113, 3-(((2R,3S)-2-hydroxy-3-(3-(N-methylmethylsulfonamido)-5-((R)-1-phenylethylcarbamoyl)benzamido)-4-phenylbutylamino)methyl)benzoic acid], in test [1], the IC50 is less than 1 µM. Besides, the Ki at memapsin 2 (20 minutes pre-incubation) was less than 0.3 µM.

In the case of `COc1cc(CNC[C@@H](O)[C@H](Cc2ccccc2)NC(=O)c2cccc(C(=O)N(C)Cc3nc(C)cs3)c2)cc([N+](=O)[O-])c1` [Compound 221, N1-((2S,3R)-3-hydroxy-4-(3-methoxy-5-nitrobenzylamino)-1-phenylbutan-2-yl)-N3-methyl-N3-((4-methylthiazol-2-yl)methyl)isophthalamide], in test [1], the IC50 was less than 1 µM. The Ki at memapsin 2 (fluorogenic substrate FS-2) was less than 0.3 µM.

For the compound `CCN(CC)c1cc(C(=O)N[C@@H](Cc2ccccc2)[C@H](O)CNCc2cccc(OC)c2)cc(C(=O)N(C)Cc2nc(C)cs2)c1` [Compound 169, 5-(diethylamino)-N1-((2S,3R)-3-hydroxy-4-(3-methoxybenzylamino)-1-phenylbutan-2-yl)-N3-methyl-N3-((4-methylthiazol-2-yl)methyl)isophthalamide], the IC50 in test [1] was less than 1 µM. Besides, the Ki at memapsin 2 (20 minutes pre-incubation) is less than 0.3 µM.

`CNC(=O)c1cc(C(=O)N[C@@H](Cc2ccccc2)[C@H](O)CNCc2cccc(OC)c2)cc(C(=O)N[C@H](C)c2ccccc2)c1` [Compound 94, N1-((2S,3R)-3-hydroxy-4-(3-methoxybenzylamino)-1-phenylbutan-2-yl)-N3-methyl-N5-((R)-1-phenylethyl)benzene-1,3,5-tricarboxamide]: in test [1], the IC50 fell in the range of 1 to 5 µM. Moreover, the Ki on memapsin 2 (20 minutes pre-incubation) is greater than 0.501 µM.

Turning to `C[C@@H](NC(=O)c1cc(C(=O)N[C@@H](Cc2ccccc2)[C@H](O)CNCc2cccc(C(C)(C)C)c2)cc(N(C)S(C)(=O)=O)c1)c1ccccc1` [Compound 58, N1-((2S,3R)-4-(3-tert-butylbenzylamino)-3-hydroxy-1-phenylbutan-2-yl)-5-(N-methylmethylsulfonamido)-N3-((R)-1-phenylethyl)isophthalamide], the IC50 in test [1] was less than 1 µM. The Ki on memapsin 2 (20 minutes pre-incubation) is less than 0.3 µM.

As to `CCCN(Cc1nc(C)cs1)C(=O)c1cccc(C(=O)N[C@@H](Cc2ccccc2)[C@H](O)CNCc2cccc(OC)c2)c1` [Compound 11, N1-((2S,3R)-3-hydroxy-4-(3-methoxybenzylamino)-1-phenylbutan-2-yl)-N3-((4-methylthiazol-2-yl)methyl)-N3-propylisophthalamide], the IC50 in test [1] is less than 1 µM. For the same compound, the Ki at memapsin 2 (20 minutes pre-incubation) was less than 0.3 µM.

Consider `C=C(C)c1cncc(CNC[C@@H](O)[C@H](Cc2ccccc2)NC(=O)c2cccc(C(=O)N(C)Cc3nc(C)cs3)c2)c1` [Compound 22, N1-((2S,3R)-3-hydroxy-1-phenyl-4-((5-(prop-1-en-2-yl)pyridin-3-yl)methylamino)butan-2-yl)-N3-methyl-N3-((4-methylthiazol-2-yl)methyl)isophthalamide], for which the IC50 in test [1] was less than 1 µM. On memapsin 2 (20 minutes pre-incubation), the Ki was less than 0.3 µM.

Turning to `Cc1cccc(CNC[C@@H](O)[C@H](Cc2ccccc2)NC(=O)c2cccc(C(=O)N(C)Cc3nc(C)cs3)c2)n1` [Compound 115, N1-((2S,3R)-3-hydroxy-4-((6-methylpyridin-2-yl)methylamino)-1-phenylbutan-2-yl)-N3-methyl-N3-((4-methylthiazol-2-yl)methyl)isophthalamide], in test [1], the IC50 is less than 1 µM. Moreover, the Ki at memapsin 2 (20 minutes pre-incubation) is greater than 0.501 µM.

As to `COc1cc(CNC[C@@H](O)[C@H](Cc2ccccc2)NC(=O)c2cccc(C(=O)N(C)Cc3nc(C)cs3)c2)cc(N(C)C)c1` [Compound 224, N1-((2S,3R)-4-(3-(dimethylamino)-5-methoxybenzylamino)-3-hydroxy-1-phenylbutan-2-yl)-N3-methyl-N3-((4-methylthiazol-2-yl)methyl)isophthalamide], the IC50 in test [1] is less than 1 µM. In addition, at memapsin 2 (fluorogenic substrate FS-2), the Ki is less than 0.3 µM.

For the compound `COc1cccc(CNC[C@@H](O)[C@H](Cc2ccccc2)NC(=O)c2cc(C(=O)N(C)Cc3nc(C)cs3)cc(-n3ccnc3)c2)c1` [Compound 262, N1-((2S,3R)-3-hydroxy-4-(3-methoxybenzylamino)-1-phenylbutan-2-yl)-5-(1H-imidazol-1-yl)-N3-methyl-N3-((4-methylthiazol-2-yl)methyl)isophthalamide], the IC50 in test [1] was less than 1 µM. The Ki on memapsin 2 (fluorogenic substrate FS-2) is less than 0.3 µM.

On to `Cc1csc(CN(C)C(=O)c2cc(C(=O)N[C@@H](Cc3ccccc3)[C@H](O)CNCc3cncc(C(C)C)c3)cc(-c3ccc(F)nc3)c2)n1` [Compound 259, 5-(6-fluoropyridin-3-yl)-N1-((2S,3R)-3-hydroxy-4-((5-isopropylpyridin-3-yl)methylamino)-1-phenylbutan-2-yl)-N3-methyl-N3-((4-methylthiazol-2-yl)methyl)isophthalamide], for which the IC50 in test [1] is less than 1 µM. In addition, on memapsin 2 (fluorogenic substrate FS-2), the Ki was less than 0.3 µM.
